According to patent US20230218555A1, “CREATINE, ITS DERIVATIVES, COMPOSITIONS AND METHODS OF USE THEREOF” (priority 2021, published 2023):

What was measured:
Assay type in all cases: in vivo, human
[1] = system: bunion on right foot; experiment: Example 21: subcutaneous injection over bunion; details: weekly subcutaneous injections of 1.5% aqueous solution
Description: A subject presented with bunion on right foot that has been enlarging over the past decade. […] Weekly injections will be continued for another month or two to determine whether complete resolution will be achieved.

[2] = system: Rheumatoid Arthritis (RA); experiment: Example 26: rheumatoid arthritis, intralesional injection and topical; details: 3-9% in WP 82 in nitrile gloves, 1 hour twice daily, after the creatine injections
Method: A subject, described in an earlier Example, after approximately 4 months of worsening symptoms, and finger joint enlargements on both hands, realized that they were rapidly developing RA, especially when a rheumatoid nodule enlarged over the terminal joint of the left […] finger to a size of approximately 1 cm in diameter, and about 3 mm thick. The nodule was initially injected with 0.15 ml of a 2% aqueous solution/suspension of creatine monohydrate once weekly for 4 injections. […] Thereafter the subject wore a nitrile glove containing a few drops of C15 3-9% dissolved in WP 82 for an hour twice daily on the left hand only. After another 2 months C15 9% in WP 82 was topically applied by means of their wearing nitrile gloves containing the C15 solution for 1 hour twice daily. […] It is intended for the subject to continue topical treatment in one form or another for an indefinite time forward.

[3] = system: thermal burns; experiment: Example 22: pain of thermal burns, topical; details: for relief of burn pain: person
Description: One subject spilled boiling hot water on their left hand. Within a couple hours pain was intense. They then applied 4% solution of N-acetyl ethyl creatinate (C15) dissolved in water: ethanol: propylene glycol 5:3:2 which they had been using to relieve pain over a lateral meniscus. […] Such application was continued over the next several days until the burn pain disappeared spontaneously.
A second subject burned their forearm where they accidentally touched the hot oven rack. They immediately applied 9% solution of N-acetyl ethyl creatinate (C15) dissolved in water: ethanol: propylene glycol 5:3:2 that they were using for topical treatment of their rheumatoid arthritis. […] Repeated application were applied over the next 3 days, until the burn pain spontaneously ceased.

[4] = system: sprained left ankle; experiment: Example 27: ankle sprain pain; details: 4% in WP 82, 2-3 times daily for 4-5 days
Description: A subject sprained their left ankle while hiking.

## CCOC(=O)CN(C)C(N)=NC(C)=O [Compound C15, N-acetyl ethyl creatinate]
[1]
  change of bunion: distinct resolution in mass
[2]
  appearance of hands after 9 months of treatments: both hands appear to be completely normal
[3]; 4% in water: ethanol: propylene glycol 5:3:2, topical, hand
  relief of burn pain: immediate relief of the burn pain
[3]; 4% solution
  duration of relief: 4 to 5 h
[3]; 9% in water: ethanol: propylene glycol 5:3:2, topical, forearm
  relief of burn pain: Burn pain was completely instantly relieved
[3]; 9% solution
  duration of relief: 4 to 5 h
[4]
  ankle pain at end of treatment: no ankle pain was detected
